Test results published in US6379714B1, “Pharmaceutical grade botanical drugs” (priority 1995, dated 2002).

How the values were obtained:
[1] = Body weight change of tumor bearing mice (toxic effects); assay type: in vivo, B6C3F1 hybrid female mice; conditions: 5-Fluorouracil 98 mg/kg, i.p., qd (1, 7, 14, 21)
Text: (§1) Anticancer activities of T4GEN and n-T4GEN were studied in animals bearing subcutaneous transplants of C3H Mammary adenocarcinoma 16/C. This tumor is maintained as a lung passed tumor in C3H female mice. In this example, tumors (1×10^6 cells) were transplanted (S.C.) in 18-20 g B6C3F1 hybrid female mice. On the following day, the tumor bearing animals were randomized and separated into different treatment groups (10 mice per group). There were 15 animals in the control group who received only physiological saline during the treatment periods. The treatments (i.p.) were started 48 hours after the transplants and given for a duration of 14 days (daily single injections). Animals were weighed on days 5, 9 and 14 to assess toxic effects. Tumors were measured on days 21, 28 post transplants and the results are represented as tumor weights using formula [formula]

[2] = tested on: C3H Mammary adenocarcinoma 16/C; assay: Growth of subcutaneous transplants of C3H mammary adenocarcinoma 16/C in mice; assay type: in vivo, B6C3F1 hybrid female mice; conditions: 5-Fluorouracil 98 mg/kg, i.p., qd (1, 7, 14, 21)
Text: as §1, with “The treatments (i.p.) were started 48 hours after the transplants and given for a duration of 14 days (daily single injections).” left out
(I=length of tumor, w=width of tumor expressed in mm).

O=c1[nH]cc(F)c(=O)[nH]1 [5-Fluorouracil]
ΔWts (g) (day 14) [1]: +1.77 g | Tumor Free Animals (day 93) [2]: 0/6 | Tumor Wts (day 21) [2]: 0.00 | Tumor Weight Inhibition % ([2]; day 21): 100%
